In data set [1] the target is T1, Interleukin-1 receptor-associated kinase 4 (Homo sapiens, UniProt Q9NWZ3).
T1 sequence (Q9NWZ3 whole entry): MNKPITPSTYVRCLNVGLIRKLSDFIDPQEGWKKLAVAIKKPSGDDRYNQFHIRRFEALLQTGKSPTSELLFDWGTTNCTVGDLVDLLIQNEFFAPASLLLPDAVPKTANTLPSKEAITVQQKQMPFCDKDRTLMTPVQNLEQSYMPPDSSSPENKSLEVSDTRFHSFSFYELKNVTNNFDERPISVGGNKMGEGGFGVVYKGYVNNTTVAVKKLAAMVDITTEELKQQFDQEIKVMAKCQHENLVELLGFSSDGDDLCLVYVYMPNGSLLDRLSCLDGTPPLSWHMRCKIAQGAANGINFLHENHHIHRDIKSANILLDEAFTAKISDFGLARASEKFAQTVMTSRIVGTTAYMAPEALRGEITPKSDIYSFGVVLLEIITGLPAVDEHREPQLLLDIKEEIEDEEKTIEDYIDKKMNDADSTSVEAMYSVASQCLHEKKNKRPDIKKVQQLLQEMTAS
Nature of the data set: Inhibition of IRAK4.

Data set [2] concerns the target Cytochrome P450 2D6 (Homo sapiens, UniProt P10635). As to the kind of experiment: Inhibition of CYP2D6. The class given is ADME.
The nature of data set [3]: Intrinsic clearance in rat microsomes at 0.5 uM. The format is ADME, Microsome.
Data set [4] deals with Interleukin-1 receptor-associated kinase 1 (Homo sapiens, UniProt P51617). Nature of the data set: Inhibition of IRAK1.
Data set [5] in a line: Intrinsic clearance in human microsomes at 0.5 uM. The format is ADME, Microsome.
The subject of data set [6] is PBMC. As to the kind of experiment: Inhibition of LPS-induced TNFalpha release in human PBMC cells. The format is functional.
The target of data set [7] is Cytochrome P450 3A4 (Homo sapiens, UniProt P08684). Nature of the data set: Inhibition of CYP3A4. The format is ADME. Set-up: concentration or dose not given beside the values.
The target in data set [8] is T2, CYP2D6 (Homo sapiens, UniProt P10635). Nature of the data set: Inhibition of CYP2D6 at 10 uM. The format is ADME.
Data set [9] concerns the target T3, Interleukin-1 receptor-associated kinase 4 (Homo sapiens) (UniProt Q9NWZ3).
T3 sequence (whole entry): T1 sequence (Q9NWZ3 whole entry)
As to the kind of experiment: Inhibition of IRAK4 at 10 uM.

Data set [10] has as its target T2, CYP2D6. As to the kind of experiment: Inhibition of CYP2D6 at 50 uM. The class given is ADME.

pIC50: −log10 of the molar value.

Cytochrome P450 3A4, sequence (P08684 whole entry): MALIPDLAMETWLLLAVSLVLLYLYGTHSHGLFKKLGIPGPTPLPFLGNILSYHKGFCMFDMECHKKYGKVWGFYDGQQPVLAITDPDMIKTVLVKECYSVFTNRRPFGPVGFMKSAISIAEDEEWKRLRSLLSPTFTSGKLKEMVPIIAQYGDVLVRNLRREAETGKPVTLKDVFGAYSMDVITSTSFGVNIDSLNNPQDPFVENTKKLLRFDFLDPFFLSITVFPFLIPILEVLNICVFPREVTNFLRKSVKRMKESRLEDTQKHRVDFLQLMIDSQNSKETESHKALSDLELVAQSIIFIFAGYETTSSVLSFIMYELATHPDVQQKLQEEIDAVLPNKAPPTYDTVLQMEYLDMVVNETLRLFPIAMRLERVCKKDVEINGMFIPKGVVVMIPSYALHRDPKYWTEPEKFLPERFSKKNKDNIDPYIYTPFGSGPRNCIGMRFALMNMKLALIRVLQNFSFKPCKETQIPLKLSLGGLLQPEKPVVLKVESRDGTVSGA
Interleukin-1 receptor-associated kinase 1, sequence (P51617 whole entry): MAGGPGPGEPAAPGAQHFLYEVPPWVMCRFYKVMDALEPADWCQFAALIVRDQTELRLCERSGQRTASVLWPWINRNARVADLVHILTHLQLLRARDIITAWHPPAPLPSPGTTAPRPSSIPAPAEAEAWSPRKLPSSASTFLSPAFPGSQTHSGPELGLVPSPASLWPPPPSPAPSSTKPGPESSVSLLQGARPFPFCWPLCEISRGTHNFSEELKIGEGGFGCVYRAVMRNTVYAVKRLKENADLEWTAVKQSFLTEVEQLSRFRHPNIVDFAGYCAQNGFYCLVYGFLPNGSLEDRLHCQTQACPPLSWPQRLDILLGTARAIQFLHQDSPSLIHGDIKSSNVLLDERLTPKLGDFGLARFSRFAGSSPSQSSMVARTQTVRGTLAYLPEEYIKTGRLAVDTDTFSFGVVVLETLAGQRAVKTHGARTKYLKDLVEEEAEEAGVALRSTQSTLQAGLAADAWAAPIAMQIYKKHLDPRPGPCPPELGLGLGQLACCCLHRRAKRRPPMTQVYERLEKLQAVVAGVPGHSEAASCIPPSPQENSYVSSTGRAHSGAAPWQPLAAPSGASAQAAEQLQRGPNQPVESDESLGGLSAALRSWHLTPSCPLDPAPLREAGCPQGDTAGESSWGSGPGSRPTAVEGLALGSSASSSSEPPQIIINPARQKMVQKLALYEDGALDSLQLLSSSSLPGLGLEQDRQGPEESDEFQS
Cytochrome P450 2D6, sequence (P10635 whole entry): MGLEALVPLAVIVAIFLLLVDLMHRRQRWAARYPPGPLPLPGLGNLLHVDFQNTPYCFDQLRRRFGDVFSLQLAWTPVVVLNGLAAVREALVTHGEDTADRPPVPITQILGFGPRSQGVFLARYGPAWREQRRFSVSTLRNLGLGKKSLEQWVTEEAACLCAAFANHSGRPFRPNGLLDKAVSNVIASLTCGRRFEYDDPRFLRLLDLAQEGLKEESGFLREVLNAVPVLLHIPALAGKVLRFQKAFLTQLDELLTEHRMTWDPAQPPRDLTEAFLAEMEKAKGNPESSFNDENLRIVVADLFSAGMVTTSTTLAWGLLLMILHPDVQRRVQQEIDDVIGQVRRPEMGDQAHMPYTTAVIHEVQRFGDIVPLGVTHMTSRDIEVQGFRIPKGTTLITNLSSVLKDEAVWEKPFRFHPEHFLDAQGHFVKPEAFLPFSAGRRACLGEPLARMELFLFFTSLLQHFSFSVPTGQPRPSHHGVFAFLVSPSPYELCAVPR
T2 sequence (P10635 whole entry): as above

As usually defined, the pIC50 is the negative decadic logarithm of the IC50, by convention in mol/L. In turn, `c1cc(N[C@H]2CCCNC2)nc(-c2cnc3ccccn23)c1` gave a pIC50 in [1] of 7.72.

In general, Inhibition refers to the drop in the measured response relative to a control, in per cent. A word on the microsomal CLint: it is the capacity of the preparation to metabolise the compound, expressed as a volume cleared per time. For `Clc1ccc2ncc(-c3cccc(NC4CCCNC4)n3)n2c1` (racemic), the figures for the Inhibition in [2] and in [7] were 1.8% and 8.6%, respectively. Moreover, the microsomal CLint at 0.5 µM in data set [3] was determined as 78.1 µL/min/mg; in [5], 29.5 µL/min/mg. The compound also gave a pIC50 in [4] of 3.76. Besides, in data set [6], the Activity is given as 65 nM.

Consider `c1ccc(Nc2cccc(-c3cnc4ccccn34)n2)cc1`, for which the pIC50 in data set [1] was 5.94.

Regarding `COc1ccc2c(c1)ncn2-c1cccc(NC2CCNCC2)n1`, the pIC50 in data set [1] was 6.68.

Take `CN(C)CCCNc1cccc(-c2cnc3ccccn23)n1`: the pIC50 in data set [1] is 5.09.

One may read the inhibition as the relative decrease from the control value, in per cent. As to `Clc1ccc2ncc(-c3cccc(NC4CNC4)n3)n2c1`, the pIC50 is 3.71 in data set [4] and 8.22 in data set [1]. The same compound displayed a microsomal CLint at 0.5 µM in data set [5] of 13 µL/min/mg. Besides, 10 µM produced 21% inhibition in data set [8]. The Activity in data set [6] is reported as 54 nM. This compound gave an Inhibition in data set [7] of 11%.

Turning to `N#Cc1ccc(Nc2cccc(-c3cnc4ccccn34)n2)cc1`, the inhibition in data set [9] worked out at 12%.

For `Cn1cnc(CNc2cccc(-c3cnc4ccccn34)n2)c1`, the pIC50 in [1] is 6.30.

For `c1cc(NC2CCNC2)nc(-c2cnc3ccccn23)c1` (racemic), the pIC50 in data set [1] was 6.26.

`N#Cc1ccccc1Nc1cccc(-c2cnc3ccccn23)n1` showed a pIC50 in [1] of 6.36.

Take `Clc1ccc2c(c1)ncn2-c1cccc(NC2CCNCC2)n1`: the pIC50 in [1] was 6.95.

In data set [1], `N#Cc1ccc2ncc(-c3cccc(N[C@@H]4CCCNC4)n3)n2c1` gave a pIC50 of 7.02.

In data set [1], `CN1[C@@H]2CC[C@H]1CC(Nc1cccc(-c3cnc4ccccn34)n1)C2` (stereo partly drawn) gave a pIC50 of 6.04.

Take `Clc1ccc2ncc(-c3cccc(NC4CCNC4)n3)n2c1` (racemic): the Inhibition was 15% in data set [2] and 12% in [7]. For the same compound, the microsomal CLint at 0.5 µM in [3] amounted to 49.3 µL/min/mg; in data set [5] it was 19.2 µL/min/mg. Further, the pIC50 in data set [4] was 4.64; in data set [1], 9.00. The compound further yielded an Activity in [6] of 16 nM.

Regarding `c1cc(-c2cnc3ccccn23)nc(N2CCCNCC2)c1`, in data set [1], the pIC50 is 6.31.

Regarding `NCCCNc1cccc(-c2cnc3ccccn23)n1`, the pIC50 in data set [1] is 5.89.

For `COc1ccc(-c2ccc3ncc(-c4cccc(NC5CCNCC5)n4)n3c2)cn1`, the pIC50 in [1] was 8.10.

Take `O=C(c1ccc2ncc(-c3cccc(NC4CCNCC4)n3)n2c1)N1CCOCC1`: the pIC50 in data set [1] was 6.58.

As to `COc1ccc2ncc(-c3cccc(NC4CCNCC4)n3)n2c1`, the microsomal CLint at 0.5 µM in data set [3] was 5.3 µL/min/mg; in [5] it was 19.5 µL/min/mg. Further, the pIC50 in data set [4] was 3.53; in data set [1], 8.22. This compound showed an inhibition at 50 µM in [10] of 41%. In data set [6], the Activity was determined as 220 nM. In addition, the Inhibition in data set [7] stood at 31%.

For `NC1CCN(c2cccc(-c3cnc4ccccn34)n2)CC1`, in [1], the pIC50 is 5.73.

As for `c1cc(-c2cnc3ccccn23)nc(N2C[C@H]3C[C@@H]2CN3)c1`, the pIC50 in data set [1] was 6.90.

Compound `Cn1cc(-c2ccc3ncc(-c4cccc(NC5CCNCC5)n4)n3c2)cn1` gave a pIC50 in data set [1] of 8.15.

The compound `Cn1nccc1Nc1cccc(-c2cnc3ccccn23)n1` had a pIC50 in data set [1] of 5.95.

In turn, `c1cc(NC2CCNCC2)nc(-c2cnc3ccc(-c4ccc[nH]4)cn23)c1` showed a pIC50 in data set [1] of 7.20.

For `N#Cc1ccc2ncc(-c3cccc(NC4CCNCC4)n3)n2c1`, the Inhibition in [2] is 42%; in [7], 22%. Besides, the figures for the microsomal CLint at 0.5 µM in [3] and in data set [5] were 39.9 µL/min/mg and 8.3 µL/min/mg, respectively. Also, the pIC50 in data set [4] is 4.02; in data set [1], 8.40. Further, the Activity in data set [6] is on record as 200 nM.

In [1], `Cc1ccc2ncn(-c3cccc(NC4CCNCC4)n3)c2c1` gave a pIC50 of 8.00.

In turn, `c1cc(NC2CNC2)nc(-c2cnc3ccccn23)c1` had a negative logarithm of the IC50 (pIC50) in [1] of 7.41.

`COc1cc2ncn(-c3cccc(NC4CCNCC4)n3)c2cc1OC` gave a negative-log IC50 (pIC50) in [1] of 6.74.

Consider `Cc1ccc2c(c1)ncn2-c1cccc(NC2CCNCC2)n1`, for which the pIC50 in [1] is 5.96.

`c1cc(NC2C[C@H]3CC[C@@H](C2)N3)nc(-c2cnc3ccccn23)c1` (stereo partly drawn) had a pIC50 in data set [1] of 6.65.

Consider `Clc1cc2ncn(-c3cccc(NC4CCNCC4)n3)c2cc1Cl`, for which the pIC50 in data set [1] was 6.78.

As for `Clc1ccc2ncn(-c3cccc(NC4CCNCC4)n3)c2c1`, the pIC50 in data set [1] is 8.52.

As for `c1cc(NCC2CCCN2)nc(-c2cnc3ccccn23)c1` (racemic), the pIC50 in data set [1] is 6.50.

The compound `CN(C)C(=O)c1ccc2ncc(-c3cccc(NC4CCNCC4)n3)n2c1` had a pIC50 in data set [1] of 7.31.

The compound `NC1CCCN(c2cccc(-c3cnc4ccccn34)n2)C1` (racemic) showed a pIC50 in data set [1] of 6.27.

`NC(=O)c1ccc2ncc(-c3cccc(NC4CCNCC4)n3)n2c1` showed a pIC50 in [1] of 8.30.

With `COc1ccc2ncn(-c3cccc(NC4CCNCC4)n3)c2c1`, the pIC50 in [1] is 7.82.

`c1cc(NC2CCNCC2)nc(-c2cnc3ccc(-c4cc[nH]n4)cn23)c1` showed a pIC50 in [1] of 8.70.

Regarding `c1cc(NCC2CCNCC2)nc(-c2cnc3ccccn23)c1`, the negative-log IC50 (pIC50) in data set [1] is 5.52.

Take `COc1ccc2ncc(-c3cccc(NC4CNC4)n3)n2c1`: in data set [1], the pIC50 was 8.15.

Values taken from ChEMBL document CHEMBL1145577, “IRAK-4 inhibitors. Part III: a series of imidazo[1,2-a]pyridines” (Bioorg Med Chem Lett, 2008).
